Source: paper PMC7774954, “Interactomic affinity profiling by holdup assay: Acetylation and distal residues impact the PDZome-binding specificity of PTEN phosphatase” (PLoS ONE, 2020)
*1 amine or outer side, *2 acyl side, *3 side chain or, on linkers, in order; H or OH if unused. Where a SMILES comes first, the peptide text is derived from it. The star is where a group is joined. X1 = O=C(CCCC[C@@H]1SC[C@@H]2NC(=O)N[C@@H]21)NCCCOCCOCCOCCCN*; Suc = O=C(CCC(=O)[*:2])[*:1]

Experiments:
MAGI2 PDZ 2 = biological target: T1, MAGI2 PDZ 2 (Homo sapiens, UniProt Q86UL8); assay: Holdup assay, MAGI2-2; type: binding; details: for BI: MAGI2-2
T1 construct: made in house; host or cells: E. coli
Description: (§1) The holdup assay was performed on a Tecan freedom Evo200 robot with 384-well plates in singlicate for the three 11-mer PTEN variants and the 13-mer PTEN peptide as described in [31, 32]. Briefly, prior to interaction assay, 2.5 μL of streptavidin resin was saturated in each well with 20 μL of biotinylated PBM peptides (42 μM) and then washed twice with an excess of free biotin, while the reference resin was incubated only with biotin. Right before the holdup experiment, the PDZ library was spiked with an internal standard of lysozyme. Then, the biotin- or PBM-saturated resin was incubated, each in a distinct well of a 384-well plate, with complete cell lysates diluted so that the concentration of the tag-PDZ present in the crude extract is adjusted at 4 μM. After a sufficient time to reach complex equilibrium (15 min.), a fast and mild filtration step is performed and the tag-PDZ concentrations were measured by capillary electrophoresis instrument (LabChip GXII, PerkinElmer, Massachusets, USA). Standard markers were used to convert migration time into molecular weight on the LabChip software and inappropriate molecular weight markers were corrected or excluded.
(§2) For filtered data, the BI was extracted with the following equation (Eq 1) that estimates the depleted fraction after superimposition of the sample and reference electropherograms: BI=Iref−Ilig/Iref (1) where Iref and Ilig are the intensities of the tag-PDZ peaks measured, for each PDZ domain/PBM peptide interaction pair, in the biotin reference and the PBM electropherograms, respectively.
(§3) BIs were transformed into dissociation constants (KD) using the following formula: KD=([PDZtot]−BI·[PDZtot])·([PBMtot]−BI·[PDZtot])/BI·[PDZtot] (2) where [PDZtot] and [PBMtot] correspond to the total concentrations of the PDZ domain (usually around 4 μM) and the PBM peptide used during the assay. Since the PBMtot concentration in the resin during the holdup assay parameter may differ from one peptide to another and remains unknown, it is impossible to directly convert BI values into KD constants. We systematically determined the KD constants for a subset of PDZ/PBM pairs by competitive FP. […] For each PBM, the average peptide concentration was calculated after outlier rejection based on the absolute distances from the median as compared to three times the standard deviation (3σ rule), with never more than 2 values rejected.

MAST2 PDZ 1 = biological target: T2, MAST2 PDZ 1 (Homo sapiens, UniProt Q6P0Q8); assay: Holdup assay, MAST2-1; type: binding
T2 construct: made in house; host or cells: E. coli
T2 sequence (Q6P0Q8 1104-1192 limits assumed): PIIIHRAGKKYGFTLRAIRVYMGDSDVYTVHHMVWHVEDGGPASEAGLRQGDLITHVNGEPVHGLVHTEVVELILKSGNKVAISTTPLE
Description: as §1, §2, §3

ARHGAP23-1 = assay: Holdup assay, ARHGAP23-1; type: binding, human
CARD14-1 = assay: Holdup assay, CARD14-1; type: binding, human
DLG5-2 = assay: Holdup assay, DLG5-2; type: binding, human
GRIP2-1 = assay: Holdup assay, GRIP2-1; type: binding, human
GRIP2-5 = assay: Holdup assay, GRIP2-5; type: binding, human
IL16-3 = assay: Holdup assay, IL16-3; type: binding, human
INADL-10 = assay: Holdup assay, INADL-10; type: binding, human
INADL-3 = assay: Holdup assay, INADL-3; type: binding, human
INADL-8 = INADL-8 (Homo sapiens, UniProt Q8NI35); assay: Holdup assay, INADL-8; type: binding
LAP2-1 = LAP2-1 (Homo sapiens, UniProt Q96RT1); assay: Holdup assay, LAP2-1; type: binding
LIMK2-1 = biological target: T3, LIMK2-1 (Homo sapiens, UniProt P53671); assay: Holdup assay, LIMK2-1; type: binding
T3 sequence (P53671 152-239): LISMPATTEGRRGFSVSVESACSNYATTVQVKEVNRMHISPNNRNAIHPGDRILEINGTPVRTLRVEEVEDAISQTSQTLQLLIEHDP

LNX1-3 = assay: Holdup assay, LNX1-3; type: binding, human
PTPN13 PDZ 4 = biological target: T4, PTPN13 PDZ 4 (Homo sapiens, UniProt Q12923); assay: Holdup assay, PTPN13-4; type: binding; details: for BI: PDZ domain PTPN13-4
T4 construct: made in house; host or cells: E. coli
T4 sequence (Q12923 1788-1868 limits assumed): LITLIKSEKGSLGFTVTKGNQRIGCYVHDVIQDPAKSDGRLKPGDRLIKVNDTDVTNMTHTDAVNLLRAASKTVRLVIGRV
Description: as §1, §2, §3

APBA1-1 = assay: Holdup assay, APBA1-1; type: binding, human
MPDZ-10 = MPDZ-10 (Homo sapiens, UniProt O75970); assay: Holdup assay, MPDZ-10; type: binding
Sequence of MPDZ-10 (O75970 whole entry): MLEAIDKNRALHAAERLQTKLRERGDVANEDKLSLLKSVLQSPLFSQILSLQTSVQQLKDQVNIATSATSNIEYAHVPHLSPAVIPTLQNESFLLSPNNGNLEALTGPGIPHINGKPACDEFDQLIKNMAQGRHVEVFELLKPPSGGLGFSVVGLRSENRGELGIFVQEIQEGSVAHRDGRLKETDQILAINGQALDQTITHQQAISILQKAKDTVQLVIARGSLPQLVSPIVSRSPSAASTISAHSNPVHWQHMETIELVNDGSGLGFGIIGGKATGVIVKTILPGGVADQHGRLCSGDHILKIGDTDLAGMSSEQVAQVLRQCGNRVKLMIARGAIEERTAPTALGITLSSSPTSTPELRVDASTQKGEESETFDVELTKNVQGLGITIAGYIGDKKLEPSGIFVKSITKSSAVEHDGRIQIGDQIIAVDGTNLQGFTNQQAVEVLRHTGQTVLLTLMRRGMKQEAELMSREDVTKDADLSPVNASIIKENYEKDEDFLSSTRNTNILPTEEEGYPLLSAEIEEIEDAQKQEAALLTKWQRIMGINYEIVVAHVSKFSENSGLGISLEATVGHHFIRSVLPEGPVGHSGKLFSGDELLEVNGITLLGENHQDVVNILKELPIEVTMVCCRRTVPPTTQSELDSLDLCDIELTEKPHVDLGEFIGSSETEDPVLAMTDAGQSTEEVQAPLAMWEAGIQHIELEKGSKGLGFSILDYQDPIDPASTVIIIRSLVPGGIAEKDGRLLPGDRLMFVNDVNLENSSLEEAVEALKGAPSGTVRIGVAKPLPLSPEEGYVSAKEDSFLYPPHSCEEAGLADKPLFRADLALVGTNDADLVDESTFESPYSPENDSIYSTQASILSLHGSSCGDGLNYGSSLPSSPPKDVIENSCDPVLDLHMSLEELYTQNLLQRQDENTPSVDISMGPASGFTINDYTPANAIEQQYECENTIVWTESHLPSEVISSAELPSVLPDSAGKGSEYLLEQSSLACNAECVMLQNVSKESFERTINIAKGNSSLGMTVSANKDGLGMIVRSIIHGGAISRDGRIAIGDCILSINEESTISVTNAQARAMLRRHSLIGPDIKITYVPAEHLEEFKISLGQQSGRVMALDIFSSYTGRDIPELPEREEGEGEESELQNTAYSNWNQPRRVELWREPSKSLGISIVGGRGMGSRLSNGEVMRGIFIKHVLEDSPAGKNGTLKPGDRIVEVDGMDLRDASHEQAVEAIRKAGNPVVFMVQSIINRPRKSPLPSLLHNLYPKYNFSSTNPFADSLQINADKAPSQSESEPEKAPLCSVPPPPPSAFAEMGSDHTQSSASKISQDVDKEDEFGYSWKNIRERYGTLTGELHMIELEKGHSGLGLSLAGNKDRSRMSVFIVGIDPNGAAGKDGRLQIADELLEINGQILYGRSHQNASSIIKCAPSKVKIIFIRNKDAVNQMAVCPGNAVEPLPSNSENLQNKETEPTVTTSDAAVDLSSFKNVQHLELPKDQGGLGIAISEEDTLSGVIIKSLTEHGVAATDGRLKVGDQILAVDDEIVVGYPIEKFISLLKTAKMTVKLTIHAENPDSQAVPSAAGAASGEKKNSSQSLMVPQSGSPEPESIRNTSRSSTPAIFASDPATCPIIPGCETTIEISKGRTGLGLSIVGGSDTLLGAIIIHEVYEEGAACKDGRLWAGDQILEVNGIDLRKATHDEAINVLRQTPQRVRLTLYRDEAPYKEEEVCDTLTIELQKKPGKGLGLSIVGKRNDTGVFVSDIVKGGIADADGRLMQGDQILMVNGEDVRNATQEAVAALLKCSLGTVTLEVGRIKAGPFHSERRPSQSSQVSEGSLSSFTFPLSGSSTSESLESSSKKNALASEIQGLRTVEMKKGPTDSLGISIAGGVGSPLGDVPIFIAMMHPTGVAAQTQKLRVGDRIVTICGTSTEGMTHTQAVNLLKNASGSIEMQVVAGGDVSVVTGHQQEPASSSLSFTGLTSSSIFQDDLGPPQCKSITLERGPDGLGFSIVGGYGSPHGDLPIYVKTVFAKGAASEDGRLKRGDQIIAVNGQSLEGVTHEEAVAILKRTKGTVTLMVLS

T1 sequence (Q86UL8 426-510 limits assumed): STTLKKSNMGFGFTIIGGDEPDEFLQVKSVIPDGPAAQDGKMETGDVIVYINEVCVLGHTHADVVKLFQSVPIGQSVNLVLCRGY
Sequence of INADL-8 (Q8NI35 whole entry): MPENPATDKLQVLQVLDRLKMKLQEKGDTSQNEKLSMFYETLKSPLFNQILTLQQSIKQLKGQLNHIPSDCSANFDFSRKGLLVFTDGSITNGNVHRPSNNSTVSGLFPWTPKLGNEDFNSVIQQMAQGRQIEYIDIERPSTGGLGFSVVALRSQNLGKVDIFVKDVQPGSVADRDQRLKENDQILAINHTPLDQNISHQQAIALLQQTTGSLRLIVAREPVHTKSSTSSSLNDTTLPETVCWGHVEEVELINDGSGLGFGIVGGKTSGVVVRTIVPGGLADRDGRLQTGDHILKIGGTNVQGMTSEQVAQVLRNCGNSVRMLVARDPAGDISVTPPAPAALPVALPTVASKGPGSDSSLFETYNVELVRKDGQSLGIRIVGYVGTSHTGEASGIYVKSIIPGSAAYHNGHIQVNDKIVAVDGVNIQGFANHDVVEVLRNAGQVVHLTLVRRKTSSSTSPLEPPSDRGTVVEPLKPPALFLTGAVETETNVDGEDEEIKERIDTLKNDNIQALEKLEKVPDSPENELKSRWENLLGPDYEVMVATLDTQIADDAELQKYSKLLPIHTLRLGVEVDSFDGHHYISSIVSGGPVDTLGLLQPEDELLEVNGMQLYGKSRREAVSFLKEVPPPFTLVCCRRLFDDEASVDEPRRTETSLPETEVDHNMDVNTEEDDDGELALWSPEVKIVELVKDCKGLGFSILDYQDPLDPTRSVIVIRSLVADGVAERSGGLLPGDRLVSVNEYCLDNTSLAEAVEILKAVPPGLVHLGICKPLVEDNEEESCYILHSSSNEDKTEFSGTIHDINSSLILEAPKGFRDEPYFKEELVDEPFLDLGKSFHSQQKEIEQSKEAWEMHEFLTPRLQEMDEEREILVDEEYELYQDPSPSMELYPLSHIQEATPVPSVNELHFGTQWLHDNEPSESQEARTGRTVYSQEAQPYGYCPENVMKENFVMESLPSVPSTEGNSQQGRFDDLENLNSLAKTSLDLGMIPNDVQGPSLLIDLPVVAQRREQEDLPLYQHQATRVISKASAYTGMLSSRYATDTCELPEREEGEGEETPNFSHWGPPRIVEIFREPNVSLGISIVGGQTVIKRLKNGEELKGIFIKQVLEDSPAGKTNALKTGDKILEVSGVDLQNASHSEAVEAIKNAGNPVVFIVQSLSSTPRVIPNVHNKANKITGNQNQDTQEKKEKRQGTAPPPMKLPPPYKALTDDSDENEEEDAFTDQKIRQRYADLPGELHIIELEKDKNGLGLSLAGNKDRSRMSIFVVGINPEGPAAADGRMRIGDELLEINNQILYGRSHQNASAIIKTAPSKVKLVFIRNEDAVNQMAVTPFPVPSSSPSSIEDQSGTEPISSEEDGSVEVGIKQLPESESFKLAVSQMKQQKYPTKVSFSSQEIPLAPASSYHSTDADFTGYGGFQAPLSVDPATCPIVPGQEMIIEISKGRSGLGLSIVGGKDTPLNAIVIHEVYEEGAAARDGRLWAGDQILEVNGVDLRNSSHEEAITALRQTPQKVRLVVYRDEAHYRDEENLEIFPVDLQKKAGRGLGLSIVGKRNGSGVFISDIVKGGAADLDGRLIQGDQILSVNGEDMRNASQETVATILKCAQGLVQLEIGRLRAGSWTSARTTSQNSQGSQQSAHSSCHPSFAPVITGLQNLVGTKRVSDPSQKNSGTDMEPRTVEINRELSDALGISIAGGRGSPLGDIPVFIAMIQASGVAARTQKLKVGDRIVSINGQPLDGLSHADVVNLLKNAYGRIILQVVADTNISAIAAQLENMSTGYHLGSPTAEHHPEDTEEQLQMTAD
Sequence of LAP2-1 (Q96RT1 1321-1410): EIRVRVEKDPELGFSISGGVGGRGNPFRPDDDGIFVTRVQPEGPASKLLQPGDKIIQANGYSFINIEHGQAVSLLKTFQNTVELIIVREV

For `CC[C@H](C)[C@H](NC(=O)[C@H](CCC(N)=O)NC(=O)[C@@H](NC(=O)[C@H](Cc1c[nH]cn1)NC(=O)[C@H](CCC(N)=O)NC(=O)[C@H](CC(=O)O)NC(=O)[C@H](CCC(=O)O)NC(=O)[C@H](CC(=O)O)NC(=O)CCC(=O)NCCCOCCOCCOCCCNC(=O)CCCC[C@@H]1SC[C@@H]2NC(=O)N[C@@H]21)[C@@H](C)O)C(=O)N[C@H](C(=O)N[C@@H](CCCCN)C(=O)N[C@H](C(=O)O)C(C)C)[C@@H](C)O` [PTEN_11], the BI (MAGI2 PDZ 2) was 0.18, the Kd (MAST2 PDZ 1) was 12.7 µM and the BI (MAST2 PDZ 1; MAST2-1) was 0.711. The “BI (binding intensity)” value (MAST2 PDZ 1; MAST2-1, holdup, singlicate, 0.00 no binding to 1.00 strong binding) was 0.71, the BI (ARHGAP23-1) was -0.109 and the LogKD (ARHGAP23-1) was 3.519. The BI (CARD14-1) was -0.077, the LogKD (CARD14-1) was 3.519 and the BI (DLG5-2) was 0.001. For the same compound, the LogKD (DLG5-2) was 3.519, the BI (GRIP2-1) was -0.003 and the LogKD (GRIP2-1) was 3.519. For the same compound, the BI (GRIP2-5) was 0.055, the LogKD (GRIP2-5) was 3.519 and the BI (IL16-3) was 0.004. It also gave a LogKD (IL16-3) of 3.519, a BI (INADL-10) of 0.022 and a LogKD (INADL-10) of 3.519. It also gave a BI (INADL-3) of -0.001, a LogKD (INADL-3) of 3.519 and a BI (INADL-8) of 0.388. It also gave a Kd (INADL-8) of 51.2 µM, a BI (LAP2-1) of 0.305 and a Kd (LAP2-1) of 74.7 µM. For the same compound, the BI (LIMK2-1) was 0.05, the LogKD (LIMK2-1) was 3.519 and the BI (LNX1-3) was -0.02. For the same compound, the LogKD (LNX1-3) was 3.519.

For `CC[C@H](C)[C@H](NC(=O)[C@H](CCC(N)=O)NC(=O)[C@@H](NC(=O)[C@H](Cc1c[nH]cn1)NC(=O)[C@H](CCC(N)=O)NC(=O)[C@H](CC(=O)O)NC(=O)[C@H](CCC(=O)O)NC(=O)[C@H](CC(=O)O)NC(=O)[C@H](Cc1ccccc1)NC(=O)[C@@H]1CCCN1C(=O)CCC(=O)NCCCOCCOCCOCCCNC(=O)CCCC[C@@H]1SC[C@@H]2NC(=O)N[C@@H]21)[C@@H](C)O)C(=O)N[C@H](C(=O)N[C@@H](CCCCN)C(=O)N[C@H](C(=O)O)C(C)C)[C@@H](C)O` [PTEN_13] ({X1-Suc}-PFDEDQHTQITKV-OH), the BI (MAGI2 PDZ 2) was 0.082, the Kd (MAST2 PDZ 1) was 1.28 µM and the BI (MAST2 PDZ 1; MAST2-1) was 0.88. It also gave a Kd (PTPN13 PDZ 4) of 35.8 µM, a BI (PTPN13 PDZ 4) of 0.306 and a BI (APBA1-1) of -0.05. For the same compound, the BI (ARHGAP23-1) was -0.062, the BI (CARD14-1) was -0.001 and the BI (DLG5-2) was -0.092. The BI (GRIP2-1) was -0.085, the BI (GRIP2-5) was -0.06 and the BI (IL16-3) was -0.001. It also gave a BI (INADL-10) of -0.05, a BI (INADL-3) of 0.031 and a BI (INADL-8) of 0.247. The Kd (INADL-8) was 48.8 µM, the BI (LAP2-1) was 0.172 and the BI (LIMK2-1) was 0.152. The BI (LNX1-3) was 0.016, the BI (MPDZ-10) was 0.493 and the Kd (MPDZ-10) was 15.5 µM.

Compound `CC[C@H](C)[C@H](NC(=O)[C@H](CCC(N)=O)NC(=O)[C@@H](NC(=O)[C@H](Cc1c[nH]cn1)NC(=O)[C@H](CCC(N)=O)NC(=O)[C@H](CC(=O)O)NC(=O)[C@H](CCC(=O)O)NC(=O)[C@H](CC(=O)O)NC(=O)CCC(=O)NCCCOCCOCCOCCCNC(=O)CCCC[C@@H]1SC[C@@H]2NC(=O)N[C@@H]21)[C@@H](C)O)C(=O)N[C@H](C(=O)N[C@@H](CCCCNC(C)=O)C(=O)N[C@H](C(=O)O)C(C)C)[C@@H](C)O` [PTEN_Ac] has a Kd (MAGI2 PDZ 2) of 55.5 µM, a BI (MAGI2 PDZ 2) of 0.325 and a Kd (MAST2 PDZ 1) of 4.07 µM. It also gave a BI (MAST2 PDZ 1; MAST2-1) of 0.858, a Kd (PTPN13 PDZ 4) of 10.4 µM and a BI (PTPN13 PDZ 4) of 0.707. The “binding of PTPN13-4 (in words)” value (PTPN13 PDZ 4; PTPN13-4) was “PTPN13-4 binds to PTEN_Ac”, the BI (APBA1-1) was -0.002 and the LogKD (APBA1-1) was 3.605. It also gave a BI (ARHGAP23-1) of -0.108, a LogKD (ARHGAP23-1) of 3.605 and a BI (DLG5-2) of 0.018. The LogKD (DLG5-2) was 3.605, the BI (GRIP2-1) was -0.038 and the LogKD (GRIP2-1) was 3.605. It also gave a BI (GRIP2-5) of 0.067, a LogKD (GRIP2-5) of 3.605 and a BI (IL16-3) of -0.166. For the same compound, the LogKD (IL16-3) was 3.605, the BI (INADL-3) was -0.021 and the LogKD (INADL-3) was 3.605. For the same compound, the BI (INADL-8) was 0.509, the Kd (INADL-8) was 25 µM and the BI (LAP2-1) was 0.214. It also gave a Kd (LAP2-1) of 99.7 µM, a BI (LIMK2-1) of -0.087 and a LogKD (LIMK2-1) of 3.605. For the same compound, the BI (LNX1-3) was 0.072, the LogKD (LNX1-3) was 3.605 and the BI (MPDZ-10) was 0.391. It also gave a Kd (MPDZ-10) of 41.2 µM.

With `CC[C@H](C)[C@H](NC(=O)[C@H](CCC(N)=O)NC(=O)[C@@H](NC(=O)[C@H](Cc1c[nH]cn1)NC(=O)[C@H](CCC(N)=O)NC(=O)[C@H](CC(=O)O)NC(=O)[C@H](CCC(=O)O)NC(=O)[C@H](CC(=O)O)NC(=O)CCC(=O)NCCCOCCOCCOCCCNC(=O)CCCC[C@@H]1SC[C@@H]2NC(=O)N[C@@H]21)[C@@H](C)O)C(=O)N[C@H](C(=O)N[C@@H](CCCNC(=N)N)C(=O)N[C@H](C(=O)O)C(C)C)[C@@H](C)O` [PTEN_KR] ({X1-Suc}-DEDQHTQITRV-OH) the Kd (MAGI2 PDZ 2) was 29.2 µM, the BI (MAGI2 PDZ 2) was 0.443 and the Kd (MAST2 PDZ 1) was 6.66 µM. It also gave a BI (MAST2 PDZ 1; MAST2-1) of 0.767, a BI (ARHGAP23-1) of -0.018 and a LogKD (ARHGAP23-1) of 3.655. For the same compound, the BI (CARD14-1) was -0.077, the LogKD (CARD14-1) was 3.655 and the BI (DLG5-2) was -0.028. It also gave a LogKD (DLG5-2) of 3.655, a BI (GRIP2-1) of -0.04 and a LogKD (GRIP2-1) of 3.655. For the same compound, the BI (GRIP2-5) was 0.006, the LogKD (GRIP2-5) was 3.655 and the BI (IL16-3) was -0.005. The LogKD (IL16-3) was 3.655, the BI (INADL-10) was 0.019 and the LogKD (INADL-10) was 3.655. It also gave a BI (INADL-3) of -0.042, a LogKD (INADL-3) of 3.655 and a BI (INADL-8) of 0.532. It also gave a Kd (INADL-8) of 20.1 µM, a BI (LAP2-1) of 0.205 and a Kd (LAP2-1) of 93.8 µM. The BI (LIMK2-1) was -0.042 and the LogKD (LIMK2-1) was 3.655.
